We go through 1 compound from patent US20060167104A1, “Method for extracting a novel compound from the root of a plant of the pentadiplandraceae family and use of N,N'-dibenzylthiourea as a medicine” (priority 2002, published 2006).

Each structure is given as a SMILES string.

Series [1] can be described thus: Fentom method: degradation of deoxyribose by free radicals from xanthine/xanthine oxidase, malondialdehyde measured by colorimetry. It is filed as biochemical. The following applies: in relation to the control containing no free hydroxyl radical trapper. The protocol: We used the Fentom method. This method is based on the degradation of deoxyribose by free radicals generated by the xanthine/xanthine oxidase system. This degradation leads to the formation of malondialdehyde which is measured by colorimetry.
In this technique, the trapping of free hydroxyl radicals is translated into a decrease in the formation of malondialdehyde.
N,N′-dibenzylthiourea in solutions of concentration 20, 10 and 5% decreases the production of malondialdehyde by 65, 59 and 51% respectively in relation to the control containing no free hydroxyl radical trapper.

For the compound `S=C(NCc1ccccc1)NCc1ccccc1` [N,N′-dibenzylthiourea], the “decrease in the production of malondialdehyde” value came out at 51% in series [1] (solution of concentration 5%), 59% in series [1] (solution of concentration 10%) and 65% in series [1] (solution of concentration 20%). Also, the toxicity entry in “Toxicity statement” was “non-toxic”.
